# Source: patent publication US20250011298A1, “CRYSTALLINE FORMS OF A CDK9 INHIBITOR AND USES THEREOF” (PRELUDE THERAPEUTICS INCORPORATED, priority 2021, published 2025)
# Experiment: Thermogravimetric analysis (TGA) of crystalline forms
# Type: physicochemical
# Settings: TGA thermogram; ramp from 25° C. to 600° C. at 20° C./min, nitrogen purge
# Experimental: Crystalline forms of the compound of Formula I were analyzed using a TA Instruments Thermogravimetric Analyzer, TGA Q500 with autosampler. The general experimental conditions for TGA were ramp from 25° C. 600° C. at 20° C./min; nitrogen purge, gas flow at 25 mL/min; platinum sample pan.
row,TGA: degradation occurring after [°C],SMILES
1,> 176,Cc1cnc(NC(=O)[C@H]2CCC[C@@H](NC(=O)CC#N)C2)cc1-c1cc(F)c2ncn(C(C)C)c2c1 [Form II]
2,> 176,Cc1cnc(NC(=O)[C@H]2CCC[C@@H](NC(=O)CC#N)C2)cc1-c1cc(F)c2ncn(C(C)C)c2c1 [Form I]
